One block for each molecule: values may come before it.
What was measured:
mGluR5 [1] = experiment: functional mGluR5 antagonist assay; format: cell-based; conditions: for IC50 in functional HTS: identified from the functional HTS
mGluR5 [2] = molecular target: mGluR5 (Rattus norvegicus, UniProt P31424); experiment: functional mGluR5 antagonist assay; format: cell-based
mGluR5 (Rattus norvegicus, UniProt P31424), sequence (P31424 21-1203): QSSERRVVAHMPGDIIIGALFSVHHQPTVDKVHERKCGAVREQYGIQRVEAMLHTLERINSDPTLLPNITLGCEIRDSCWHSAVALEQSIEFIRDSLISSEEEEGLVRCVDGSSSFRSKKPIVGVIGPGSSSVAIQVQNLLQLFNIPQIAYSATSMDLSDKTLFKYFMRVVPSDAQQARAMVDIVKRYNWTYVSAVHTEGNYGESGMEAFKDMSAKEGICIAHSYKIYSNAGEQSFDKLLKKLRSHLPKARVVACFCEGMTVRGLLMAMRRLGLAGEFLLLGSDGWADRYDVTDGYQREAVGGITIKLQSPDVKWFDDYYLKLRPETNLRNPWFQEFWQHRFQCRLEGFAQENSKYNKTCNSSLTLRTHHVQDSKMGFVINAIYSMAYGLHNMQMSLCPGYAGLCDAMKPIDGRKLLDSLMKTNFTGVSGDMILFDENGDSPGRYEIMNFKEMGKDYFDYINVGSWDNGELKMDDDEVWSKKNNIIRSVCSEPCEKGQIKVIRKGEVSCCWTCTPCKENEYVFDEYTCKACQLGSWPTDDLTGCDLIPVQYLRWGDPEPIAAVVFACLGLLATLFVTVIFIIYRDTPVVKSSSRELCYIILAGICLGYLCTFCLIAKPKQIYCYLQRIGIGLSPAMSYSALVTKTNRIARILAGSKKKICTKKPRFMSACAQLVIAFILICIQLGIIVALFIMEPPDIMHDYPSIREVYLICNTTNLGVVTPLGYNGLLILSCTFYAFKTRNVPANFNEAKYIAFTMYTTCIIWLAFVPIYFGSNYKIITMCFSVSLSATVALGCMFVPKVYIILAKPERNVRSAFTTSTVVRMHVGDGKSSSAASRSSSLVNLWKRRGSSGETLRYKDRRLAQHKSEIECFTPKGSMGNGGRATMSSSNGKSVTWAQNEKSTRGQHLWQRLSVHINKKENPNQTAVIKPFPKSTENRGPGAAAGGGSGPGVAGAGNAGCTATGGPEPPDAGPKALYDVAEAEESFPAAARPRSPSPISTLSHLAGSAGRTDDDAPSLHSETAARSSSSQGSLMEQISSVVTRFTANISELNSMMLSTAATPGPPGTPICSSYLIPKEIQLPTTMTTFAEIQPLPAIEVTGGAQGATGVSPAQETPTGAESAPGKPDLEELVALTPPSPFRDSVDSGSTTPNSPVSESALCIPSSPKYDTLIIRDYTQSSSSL

mGluR5, sequence (P31424 21-1203): as above

IC50 in functional HTS (mGluR5 [1]): submicromolar
SMILES: O=C(c1ccco1)N1CCCC2(CCCCC2)C1 [Cmpd 10]

IC50 in functional HTS (mGluR5 [1]): submicromolar
SMILES: O=C(N1CCN(c2ccccn2)CC1)C12CC3CC(CC(C3)C1)C2 [Cmpd 11]

IC50 (mGluR5 [2]; read-out: mGluR5 IC50, newly synthesized material): 150 nM
SMILES: Cc1cc(C)c2c(N)c(C(=O)c3ccc(F)cc3)oc2n1 [Cmpd 12, (3-amino-4,6-dimethylfuro[2,3-b]pyridine-2-yl)(4-fluorophenyl)methanone]
% Glu Max (mGluR5 [2]; upon resynthesis): 1.39%

mGluR5 inhibitory activity (mGluR5 [1]): loses all mGluR5 inhibitory activity
SMILES: O=C(N1CCN(c2ccncc2)CC1)C12CC3CC(CC(C3)C1)C2 [Cmpd 20b]

— PMC3177605 (Bioorganic & medicinal chemistry letters, 2009)
